In patent US6369103B1, “Method for preventing or reducing risk of onset of cardiovascular events employing an HMG CoA reductase inhibitor” (Bristol-Myers Squibb Company, priority 1994, dated 2002):
Read-outs that look alike come from different tables or passages of the source.

Columns and labels:
[1] = test system: patients with primary hypercholesterolemia and ≧2 additional risk factors for coronary artery disease; test: Multinational randomized double-blind placebo-controlled trial: effects on plasma lipids; assay type: in vivo, human; settings: for LDL cholesterol, Mean ± SEM: calculated (Friedewald)
Description: J. Cardiology Vol. 72, Nov. 1, 1993, 1031-1036. […] Lipid analyses were performed at local laboratories and a central laboratory. […] The LDL cholesterol concentration was calculated using the Friedewald equation converted to mmol/liter: […] To assess the comparability of treatment groups, baseline values and demographic characteristics for all randomized patients were summarized for each treatment group by descriptive statistics. The primary efficacy variables were the serum lipids analyzed at local laboratories at weeks 0, 6, 13 and 26. All values were transformed to natural logarithms for the analysis. Geometric means were used to summarize lipid values by treatment group at each visit. Treatment groups were compared by analysis of covariance of change from baseline in transformed values with baseline as a covariate.

[2] = test system: patients with primary hypercholesterolemia and ≧2 additional risk factors for coronary artery disease; settings: for Sudden cardiac death, number / Myocardial infarction (fatal and nonfatal), number: n = 530; for Myocardial infarction (fatal and nonfatal), number: p = 0.031 vs placebo
Description: This example describes a large multinational study, “Effects of Pravastatin in Patients with Serum Total Cholesterol Levels from 5.2 to 7.8 mmol/liter (200 to 300 mg/dl) Plus Two Additional Atherosclerotic Risk Factors,” The Pravastatin Multinational Study Group for Cardiac Risk Patients, reported in Am. J. Cardiology Vol. 72, Nov. 1, 1993, 1031-1036. The study was designed to examine the efficacy and safety of pravastatin, together with diet modification and advice on smoking, in patients with primary hypercholesterolemia and ≧2 additional risk factors for coronary artery disease (CAD).
(§1) The efficacy and long-term safety of pravastatin in hypercholesterolemic patients were investigated in this multicenter, randomized, double-blind placebo-controlled trial. After dietary stabilization and recommendations for lifestyle modification during a 6-week placebo lead-in period, patients were randomized to receive pravastatin 20 mg or placebo at bedtime. After 13 weeks, patients who responded (defined as a decrease in total cholesterol level by >15% from baseline or to <5.2 mmol/liter [200 mg/dl]) to treatment continued on the same study medication for 13 additional weeks. […] Compliance with dietary instructions and other lifestyle counseling were periodically assessed. After completing the initial 26-week period, patients were given the option to continue in an additional 26-week double-blind phase and, following the first 52 weeks, a final 26-week period that was open-label for pravastatin in patients originally assigned to that treatment group. Additional lipid-lowering medications, except other 3-hydroxy-3-methylglutaryl coenzyme A reductase inhibitors and fibrates, could be added to patients not meeting treatment goals at the end of the first 26 weeks. Fibrates could be added in the open-label period of the study in patients originally assigned placebo.
The protocol was approved by each local ethics committee, and patients gave informed consent before randomization. The study population was to be limited to men and postmenopausal or surgically sterile women 20 to 69 years old. At entry, patients were to have a serum total cholesterol concentration between 5.2 and 7.8 mmol/liter (200 and 300 mg/dl) despite dietary intervention as well as ≧2 additional risk factors for CAD as defined in the protocol (male gender, systemic hypertension, cigarette smoking, family history of CAD, prior myocardial infarction, or history of angina pectoris). Exclusion criteria included (1) a history of homozygous familial hypercholesterolemia; (2) types I, III, IV or V hyperlipoproteinemia; (3) significant metabolic, renal, hepatic or endocrine disease; (4) history of drug abuse; or (5) obesity (>40% above ideal body weight). Patients were also excluded if, within 8 weeks of randomization, they were taking cortico-steroids immunosuppressive drugs, investigational drugs, androgens, or estrogens and progestins for indications other than replacement therapy.
(§2) After ≧4 weeks of dietary stabilization, 2 qualifying blood samples for the lipid profile were drawn approximately 1 week apart after an overnight fast of ≧10 hours. Seated systolic and diastolic blood pressures were recorded at 2 weeks and 1 week before randomization; other risk factors were assessed 1 week before randomization. Baseline lipid and laboratory safety tests, blood pressure and body weight measurements, and an ophthalmologic evaluation (including visual acuity and determination of lenticular opacities) were performed at randomizations. The presence of concurrent disease and the use of concomitant medications were also recorded. When patients returned for clinic visits at weeks 6, 13 and 26, body weight and blood pressure were measured, morning samples for lipid profiles and laboratory safety tests were drawn, and clinical adverse events and concomitant medications were recorded. Drug compliance (by tablet count) was assessed and the ophthalmologic evaluation was repeated at weeks 13 and 26.

[3] = test system: patients with primary hypercholesterolemia and ≧2 additional risk factors for coronary artery disease; settings: in vivo
Description: as §1, §2
Laboratory safety tests were performed by local laboratories and consisted of hematology (hemoglobin, red blood cell count, hematocrit, platelet count, and white blood cell count and differential) and blood chemistries (urea, creatinine, uric acid, calcium, total bilirubin, alkaline phosphatase, aspartate aminotransferase, alanine aminotransferase, γ-glutamyl aminotransferase, total protein, albumin and creatine kinase).
The incidence of adverse events in each treatment group was summarized by body system and individual events. In addition, events predefined by the protocol to be serious, e.g., fatal events or events leading to or prolonging hospitalization, were tabulated. Hematology and biochemistry variables were summarized and analyzed by geometric means and analysis of covariance of change from baseline. Ophthalmologic results were summarized in terms of the number of lenticular opacities present at baseline and at weeks 13 and 26. […] Differences in the incidence of adverse events were typically analyzed by the chi-square test with the Fisher's exact test used for rare events. Results were reported as statistically significant if a 2-sided p value ≦0.05 was attained.

[4] = test system: patients with primary hypercholesterolemia and ≧2 additional risk factors for coronary artery disease; settings: Pearson et al. commentary, cited from earlier work
[5] = baseline to Week 26, p<0.001 vs placebo
[6] = end of initial 26 weeks, 20 to 40 mg once daily (average dose 26.5 mg)
[7] = week 13, 20 mg at bedtime, p<0.001 compared with placebo
[8] = first 26 weeks, listed as Pravastatin

Compound: CC[C@H](C)C(=O)O[C@H]1C[C@H](O)C=C2C=C[C@H](C)[C@H](CC[C@@H](O)C[C@@H](O)CC(=O)O)[C@H]21 [pravastatin]
- LDL cholesterol, Mean ± SEM ([1]; Baseline, n=499): 4.69 ± 1.05 mmol/L
- HDL cholesterol, Mean ± SEM ([1]; Baseline, n=500): 1.14 ± 0.35 mmol/L
- Triglycerides, Mean ± SEM ([1]; Baseline, n=520): 1.77 ± 0.82 mmol/L
- Total cholesterol, Mean ± SEM ([1]; Baseline, n=521): 6.81 ± 0.78 mmol/L
- HDL cholesterol, Mean ± SEM ([1]; Week 26, n=459): 1.23 ± 0.37 mmol/L
- LDL cholesterol, Mean ± SEM ([1]; Week 26, n=459): 3.47 ± 0.74 mmol/L
- Total cholesterol, Mean ± SEM ([1]; Week 26, n=483): 5.55 ± 0.82 mmol/L
- Triglycerides, Mean ± SEM ([1]; Week 26, n=483): 1.56 ± 0.74 mmol/L
- LDL cholesterol, % Change [1, 5]: −26.01%
- Total cholesterol, % Change [1, 5]: −18.50%
- Triglycerides, % Change [1, 5]: −11.86%
- HDL cholesterol, % Change ([1]; baseline to Week 26, p<0.005 vs placebo): 7.90%
- increase in HDL cholesterol concentrations [1, 6]: 8%
- reduction in LDL cholesterol [1, 6]: 26%
- reduction in total cholesterol [1, 6]: 19%
- reduction in triglycerides [1, 6]: 12%
- elevation in HDL cholesterol [1, 7]: 7%
- reduction in LDL cholesterol [1, 7]: 26%
- reduction in total cholesterol [1, 7]: 19%
- reduction in triglycerides [1, 7]: 12%
- patients who achieved the target cholesterol goal ([1]; week 13, goal: total cholesterol decrease >15% from baseline or to <5.2 mmol/liter): 66%
- number of patients who achieved the target cholesterol goal ([1]; week 13, of 491 patients): 326
- patients who attained an LDL cholesterol concentration of ≦3.4 mmol/liter (130 mg/dl) ([1]; week 26): 47%
- changes in visual acuity (without correction) and incidence of new ocular opacities ([2]; both, human, in vivo): limited and similar in the 2 treatment groups
- Acute congestive heart failure, number ([2]; both, human, in vivo, 26 weeks): 1
- Central nervous system serious adverse events, Subtotal ([2]; both, human, in vivo, 26 weeks): 0
- Cerebral infarction, number ([2]; both, human, in vivo, 26 weeks): 0
- Other serious adverse events, Subtotal ([2]; both, human, in vivo, 26 weeks): 4
- Other serious adverse events: Diabetes, number ([2]; both, human, in vivo, 26 weeks): 1
- Other serious adverse events: Gastrointestinal, number ([2]; both, human, in vivo, 26 weeks): 2
- Other serious adverse events: Peripheral arterial disease, number ([2]; both, human, in vivo, 26 weeks): 1
- Other serious adverse events: Pulmonary, number ([2]; both, human, in vivo, 26 weeks): 0
- Serious cardiovascular adverse events ([2]; both, human, in vivo, 26 weeks): 0.2%
- Serious cardiovascular adverse events (Subtotal), number ([2]; both, human, in vivo, 26 weeks): 1
- Surgery serious adverse events, Subtotal ([2]; both, human, in vivo, 26 weeks): 1
- Surgery: Abdominal (hernia), number ([2]; both, human, in vivo, 26 weeks): 0
- Surgery: Breast, number ([2]; both, human, in vivo, 26 weeks): 0
- Surgery: Coronary artery bypass graft, number ([2]; both, human, in vivo, 26 weeks): 0
- Surgery: Joint (knee), number ([2]; both, human, in vivo, 26 weeks): 1
- Syncope, number ([2]; both, human, in vivo, 26 weeks): 0
- Total of all serious adverse events, number of events ([2]; both, human, in vivo, 26 weeks): 6
- Transient ischemic attack, number ([2]; both, human, in vivo, 26 weeks): 0
- Unstable angina leading to hospitalization, number ([2]; both, human, in vivo, 26 weeks): 0
- cardiovascular clinical adverse events ([2]; both, human, in vivo, 26 weeks): 2.8%
- cardiovascular clinical adverse events, number ([2]; both, human, in vivo, 26 weeks): 15
- patients reporting adverse events ([2]; both, human, in vivo, 26 weeks): 22.6%
- patients reporting adverse events, number ([2]; both, human, in vivo, 26 weeks): 120
- patients with serious adverse events ([2]; both, human, in vivo, 26 weeks): 0.9%
- patients with serious adverse events, number ([2]; both, human, in vivo, 26 weeks): 5
- patients withdrawn from the study because of an adverse event ([2]; both, human, in vivo, 26 weeks): 4.7%
- adverse events thought to be related to pravastatin administration, number ([2]; both, human, in vivo, 52 weeks): 1
- cases of unstable angina, number ([2]; both, human, in vivo, 52 weeks): 1
- patients reporting clinical adverse events ([2]; both, human, in vivo, 52 weeks): 18.5%
- patients reporting clinical adverse events, number ([2]; both, human, in vivo, 52 weeks): 55
- patients who withdrew because of adverse events ([2]; both, human, in vivo, 52 weeks): 1.7%
- episodes of unstable angina, number ([2]; both, human, in vivo, 78 weeks): 1
- myocardial infarctions, number ([2]; both, human, in vivo, 78 weeks): 1
- Sudden cardiac death, number ([2]; first 26 weeks): none
- Sudden cardiac death, number [2, 8]: 0
- Myocardial infarction (fatal and nonfatal), number ([2]; first 26 weeks): no patient and none
- Myocardial infarction (fatal and nonfatal), number [2, 8]: 0
- deaths ([2]; first 26 weeks, three placebo-treated patients died): no pravastatin-treated patient died
- Total of all serious adverse events, number of events ([2]; human, in vivo): Six
- patients who sustained myocardial infarctions, number ([2]; human, in vivo): One
- patients who withdrew because of adverse events, number ([2]; human, in vivo): Five
- patients withdrawn because of angioedema thought to be possibly related to drug therapy, number ([2]; human, in vivo): One
- patients withdrawn because of creatine kinase elevation or musculoskeletal events, number ([2]; human, in vivo): Three
- patients withdrawn from the study because of an adverse event, number ([2]; human, in vivo): Twenty-five
- serious cerebrovascular events ([2]; human, in vivo): none
- total incidence of clinical adverse events, pravastatin vs placebo ([2]; human, in vivo): no differences
- deaths ([2]; long-term portion of the trial): no deaths
- patients with elevations of creatine kinase values to >4 times pretreatment values ([3]; both, human): 2.6%
- patients with elevations of creatine kinase values to >4 times pretreatment values, number ([3]; both, human): 14
- patients with transient, asymptomatic elevations of hepatic transaminases to >3 times the upper limit of normal ([3]; both, human): 1.1%
- patients with transient, asymptomatic elevations of hepatic transaminases to >3 times the upper limit of normal, number ([3]; both, human): 6
- magnitude of the increases in alanine aminotransferase, aspartate aminotransferase and creatine kinase [3]: 3-12%
- mean level of alanine aminotransferase [3]: 16.02 U/liter
- mean level of aspartate aminotransferase [3]: 17.24 U/liter
- mean level of creatine kinase [3]: 70.62 U/liter
- syndrome of drug-induced myopathy (myalgia with creatine kinase >10 times upper limits of normal) [3]: not observed in any patient
- medical and surgical events in the coronary and cerebrovascular beds, number ([4]; first 26 weeks, 21 in the placebo group): 1
- cases of myocardial infarction or unstable angina, number ([4]; over the 78 weeks of the study, 16 in the placebo group): 2
